The text below walks through data of publication PMC2765170 (PLoS ONE, 2009).

Data set [1] deals with CoaE (M. tuberculosis dephosphocoenzyme A kinase, Rv1631) (Mycobacterium tuberculosis, UniProt P9WPA3). Put plainly: biochemical. Conditions: read-out: Ka (M^-1*104) (converted). The format is binding.
Data set [2] relates to CC(C)(COP(=O)(O)OP(=O)(O)OC[C@H]1O[C@@H](n2cnc3c(N)ncnc32)[C@H](O)[C@@H]1O)[C@@H](O)C(=O)NCCC(=O)NCCS. Briefly: purified protein. The note with it: co-substrate ATP, MgCl2, 25°C.
Data set [3] has as its system Nc1ncnc2c1ncn2[C@@H]1O[C@H](COP(=O)(O)OP(=O)(O)OP(=O)(O)O)[C@@H](O)[C@H]1O. Put plainly: purified protein. Conditions: co-substrate DCoA, MgCl2, 25°C.
Data set [4] deals with Nc1ncnc2c1ncn2[C@H]1C[C@H](O)[C@@H](COP(=O)(O)OP(=O)(O)OP(=O)(O)O)O1. Put plainly: purified protein. Conditions: alternate phosphate donor, co-substrate DCoA.

CoaE (M. tuberculosis dephosphocoenzyme A kinase, Rv1631), sequence (P9WPA3 whole entry): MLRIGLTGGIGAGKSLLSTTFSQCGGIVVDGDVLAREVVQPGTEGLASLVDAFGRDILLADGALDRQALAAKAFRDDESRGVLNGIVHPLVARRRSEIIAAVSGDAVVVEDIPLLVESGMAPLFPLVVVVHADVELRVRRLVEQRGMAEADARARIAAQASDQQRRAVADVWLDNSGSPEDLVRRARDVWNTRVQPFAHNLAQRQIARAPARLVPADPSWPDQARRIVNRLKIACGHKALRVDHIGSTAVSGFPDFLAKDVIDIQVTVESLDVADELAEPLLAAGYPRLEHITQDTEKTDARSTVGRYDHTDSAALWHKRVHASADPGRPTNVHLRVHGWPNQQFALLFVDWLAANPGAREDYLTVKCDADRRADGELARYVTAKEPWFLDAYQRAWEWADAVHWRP

Turning to `Nc1ccn([C@@H]2O[C@H](COP(=O)(O)OP(=O)(O)OP(=O)(O)O)[C@@H](O)[C@H]2O)c(=O)n1` [CTP], in data set [1], the Kd was 62.9 µM.
As to `Nc1ncnc2c1ncn2[C@@H]1O[C@H](COP(=O)(O)OP(=O)(O)O)[C@@H](O)[C@H]1O` [ADP], the Kd in data set [1] is 49.3 µM.
With `Nc1ncnc2c1ncn2[C@H]1C[C@H](O)[C@@H](COP(=O)(O)OP(=O)(O)OP(=O)(O)O)O1` [dATP], the Kd in data set [1] is 57.5 µM.
The Km is the concentration of substrate that gives half-maximal velocity. For “CoaE (M. tuberculosis dephosphocoenzyme A kinase, Rv1631) (Mycobacterium tuberculosis H37Rv)”, the values for the Km in data set [2], in data set [3] and in data set [4] were 34.9 µM, 56.8 µM and 320 µM, respectively.
